Consider ten compounds from PMC3200116 (Journal of medicinal chemistry, 2011).

Structures can show the parent of a compound that is named as a salt.

Assay [1] has as its system α3β4 nACh receptors. Conditions: Xenopus oocytes; cited from earlier work.
Assay [2] has as its target T1, α4β2 nACh receptors (Homo sapiens, UniProt P17787+P43681). The note with it: potentiation of ACh at α4β2, cited from earlier work.
For assay [3], the system named is α3β2 nACh receptors. The note with it: Xenopus oocytes; cited from earlier work.
Assay [4] concerns α4β4 nACh receptors. Conditions: Xenopus oocytes; cited from earlier work.
Assay [5] concerns α7 nACh receptors. The note with it: cited from earlier work.
Assay [6] deals with human α7 nACh receptors (Homo sapiens, UniProt P36544). Conditions: at concentrations slightly higher than those potentiating at α4β2; cited from earlier work.
human α7 nACh receptors, sequence (P36544 23-502): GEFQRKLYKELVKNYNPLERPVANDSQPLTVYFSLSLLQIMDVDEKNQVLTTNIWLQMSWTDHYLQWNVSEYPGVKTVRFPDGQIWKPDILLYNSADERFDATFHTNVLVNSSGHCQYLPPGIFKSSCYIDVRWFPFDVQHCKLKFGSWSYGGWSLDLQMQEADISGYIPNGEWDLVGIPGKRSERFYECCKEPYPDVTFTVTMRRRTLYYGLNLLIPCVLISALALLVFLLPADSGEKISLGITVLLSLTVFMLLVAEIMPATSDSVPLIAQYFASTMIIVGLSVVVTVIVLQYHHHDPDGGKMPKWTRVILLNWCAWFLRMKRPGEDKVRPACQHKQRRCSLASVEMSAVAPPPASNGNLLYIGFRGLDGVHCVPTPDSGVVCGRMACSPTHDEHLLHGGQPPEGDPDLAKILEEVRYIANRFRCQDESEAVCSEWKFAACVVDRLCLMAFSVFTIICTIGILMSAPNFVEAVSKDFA
In assay [7] the target is T1, α4β2 nACh receptors. The assay is classed as cell-based. Conditions: for potency as positive allosteric modulator relative to 1: compared with 1; for positive allosteric modulation (potentiation of ACh), in words: highest concentrations evaluated.
Assay [8] has as its target T1, α4β2 nACh receptors. Description: Antagonism. The assay is classed as cell-based.

T1 sequence (P43681 27-627): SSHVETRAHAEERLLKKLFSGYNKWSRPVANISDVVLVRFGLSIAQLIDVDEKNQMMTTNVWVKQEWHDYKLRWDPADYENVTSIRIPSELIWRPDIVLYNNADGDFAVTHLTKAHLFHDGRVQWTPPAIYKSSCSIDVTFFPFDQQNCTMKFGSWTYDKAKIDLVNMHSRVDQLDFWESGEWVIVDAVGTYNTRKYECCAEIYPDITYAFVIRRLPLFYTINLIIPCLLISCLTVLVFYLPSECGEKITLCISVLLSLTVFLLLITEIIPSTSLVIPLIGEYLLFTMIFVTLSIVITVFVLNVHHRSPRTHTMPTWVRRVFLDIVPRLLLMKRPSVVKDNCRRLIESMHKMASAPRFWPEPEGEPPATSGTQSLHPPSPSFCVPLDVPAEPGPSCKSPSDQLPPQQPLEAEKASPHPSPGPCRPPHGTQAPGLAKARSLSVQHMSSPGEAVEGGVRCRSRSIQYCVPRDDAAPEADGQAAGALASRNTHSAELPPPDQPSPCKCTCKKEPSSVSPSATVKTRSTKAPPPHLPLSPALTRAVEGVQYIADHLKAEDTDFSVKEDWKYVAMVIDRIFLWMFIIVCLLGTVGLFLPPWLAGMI
T1 sequence (P17787 26-502): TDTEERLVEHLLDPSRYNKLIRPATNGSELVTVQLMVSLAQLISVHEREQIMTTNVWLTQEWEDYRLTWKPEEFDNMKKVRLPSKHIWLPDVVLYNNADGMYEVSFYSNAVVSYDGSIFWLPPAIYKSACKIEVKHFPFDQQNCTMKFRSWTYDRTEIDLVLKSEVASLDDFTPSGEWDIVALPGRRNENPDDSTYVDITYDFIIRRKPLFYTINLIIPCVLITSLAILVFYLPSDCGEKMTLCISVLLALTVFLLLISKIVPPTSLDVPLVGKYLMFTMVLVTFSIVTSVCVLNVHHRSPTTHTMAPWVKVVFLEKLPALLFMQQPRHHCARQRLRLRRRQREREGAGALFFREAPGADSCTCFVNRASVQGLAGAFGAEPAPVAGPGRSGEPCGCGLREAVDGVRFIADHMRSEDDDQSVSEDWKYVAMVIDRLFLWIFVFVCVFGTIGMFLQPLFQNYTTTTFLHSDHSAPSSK

In the case of `C=CC(C)(C)c1[nH]c2cc(Br)ccc2c1CCNC.Cl` [Compound 1, des-formylflustrabromine], in assay [1], the “potentiation of the actions of ACh at α3β4” value is “failed to potentiate”. Also, the pEC50 originally reported entry in assay [2] is reported as “ca. 6.8”. For the same compound, in assay [2] (read-out: EC50 originally reported), the concentration for a half-maximal effect (EC50) (usually the midpoint of the concentration-response curve) is 0.12 µM. In addition, the “potentiation of the actions of ACh at α3β2” value in assay [3] was “failed to potentiate”. Also, the “potentiation of the actions of ACh at α4β4” value in assay [4] is “failed to potentiate”. Moreover, the “potentiation of the actions of ACh at α7” value in assay [5] (Xenopus oocytes) is given as “failed to potentiate”. Further, in assay [5], the “potentiation of the action of ACh in an α7 preparation” value is listed as “failed to potentiate”. For the same compound, the “inhibition of the action of ACh in an α7 preparation” value in assay [6] is on record as “inhibited”.
Take `C=CC(C)(C)c1[nH]c2cc(Br)ccc2c1CCN` [Compound 2, 6-Bromo-2-(1,1-dimethylallyl)tryptamine Hydrochloride]: the “potency as positive allosteric modulator relative to 1” value in assay [7] was “about half as potent as 1”.
With `CNCCc1c[nH]c2cc(Br)ccc12` [Compound 3, N-Methyl-6-bromotryptamine], the IC50 (as a rule, the midpoint of a concentration-inhibition curve) in assay [8] was 39.8 µM. Besides, the “positive allosteric modulation (potentiation of ACh), in words” value (“positive allosteric modulation” for short) in assay [7] was “failed to enhance the action of ACh”.
Take `CCCc1[nH]c2cc(Br)ccc2c1CCNC` [Compound 4, N-Methyl-6-bromo-2-n-propyltryptamine Oxalate]: half-maximal inhibition in assay [8] (IC50) was put at 72.4 µM.
The compound `C=CCc1[nH]c2cc(Br)ccc2c1CCNC` [Compound 5, N-Methyl-2-allyl-6-bromotryptamine Oxalate] showed a half-maximal inhibitory concentration (IC50) in assay [8] of 3.55 µM. Further, the “positive allosteric modulation” value in assay [7] was “lacked potentiating activity”.
On to `CCC(C)(C)c1[nH]c2cc(Br)ccc2c1CCNC` [Compound 6, N-Methyl-6-bromo-2-(1,1-dimethylpropyl)tryptamine Oxalate], for which the “potency as positive allosteric modulator relative to 1” value in assay [7] is on record as “at least as potent, if not twice as potent, as 1”.
In assay [8], `CCC(C)c1[nH]c2ccccc2c1CCNC` (stereo not drawn) [Compound 9, N-Methyl-2-sec-butyltryptamine Oxalate] had an IC50 of 16.6 µM. Also, the “positive allosteric modulation” value in assay [7] was “inactive”.
In turn, `CCCc1[nH]c2ccccc2c1CCNC` [Compound 10, N-Methyl-2-(n-propyl)tryptamine Oxalate] had a 50% inhibitory concentration (IC50) in assay [8] of 18.6 µM. The “positive allosteric modulation” value in assay [7] is listed as “inactivity”.
For the compound `CNCCc1c(C(C)(C)C)[nH]c2ccccc12` [Compound 11, N-Methyl-2-(tert-butyl)tryptamine Hydrogen Oxalate], the “positive allosteric modulation” value in assay [7] was “active”.
For `CNCCc1c(C(C)C)[nH]c2ccccc12` [Compound 12, N-Methyl-2-isopropyltryptamine Hydrochloride], the “positive allosteric modulation” value in assay [7] is “inactive”.
